This is an account of results in patent US9670162B2, “Mitochondrial aldehyde dehyrogenase-2 modulators and methods of use thereof” (The Board of Trustees of the Leland Stanford Junior …, priority 2013, dated 2017).

Assay [1] has as its target T1, human ALDH2 wild type (Homo sapiens, UniProt P05091).
T1 construct: His-tag (pTrcHis vector) (N); made in house; host or cells: E. coli BL21
T1 sequence (P05091 18-517): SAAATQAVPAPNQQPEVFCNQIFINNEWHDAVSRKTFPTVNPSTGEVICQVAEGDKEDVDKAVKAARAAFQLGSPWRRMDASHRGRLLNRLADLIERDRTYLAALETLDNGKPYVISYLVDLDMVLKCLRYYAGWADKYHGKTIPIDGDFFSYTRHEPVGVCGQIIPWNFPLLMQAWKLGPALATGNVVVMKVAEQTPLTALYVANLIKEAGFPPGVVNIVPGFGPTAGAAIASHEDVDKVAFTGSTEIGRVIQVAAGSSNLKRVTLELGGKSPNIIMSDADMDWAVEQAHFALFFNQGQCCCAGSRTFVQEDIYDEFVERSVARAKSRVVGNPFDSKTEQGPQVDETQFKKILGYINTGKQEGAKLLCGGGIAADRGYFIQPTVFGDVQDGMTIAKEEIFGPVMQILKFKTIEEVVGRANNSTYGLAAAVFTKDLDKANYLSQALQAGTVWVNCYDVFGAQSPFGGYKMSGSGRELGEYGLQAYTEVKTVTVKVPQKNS
Kind of assay: ALDH2 enzymatic assay (NADH at 340 nm), recombinant wild type enzyme. The assay is classed as biochemical. The arrangement: key: −: no activation or inhibition; +: activation less than control 1; ++: activation similar to control 1, within 10%; +++: activation more than control 1 and less than control (compound 161); ++++: activation similar to compound 161, within 10%. Conditions: activation relative to benchmarks control 1 and compound 161. An excerpt:
(§1) ALDH2 catalyzes the oxidative reaction of substrate acetaldehyde to acetic acid using NAD^+ as a cofactor. Enzymatic activity, or catalytic rate, of aldehyde dehydrogenase (ALDH2) can be measured spectrophotometrically at UV wavelength λ340 nm by the accumulation of reduced product NADH derived from NAD^+. […] This method is well-established in the literature [e.g. D. K. Rex, W. F. Bosron, J. E. Smialek, T. K. Li, Alcohol Clin Exp Res 9, 147 (1985)].
(§2) Full-length wild type human ALDH2 cDNA was purchased from ATCC (No. MGC-1806. GenBank ID: BC002967). The 18-amino acid mitochondria transport signal sequence was removed by PCR and cloned into the NheI/HindIII sites of a His-tag vector, pTrcHis, using standard molecular cloning techniques. The human ALDH2* cDNA construct containing the Asian E487K mutation was obtained by site-directed mutagenesis to create the E487K substitution of the wild type ALDH2. Both human clones were designed to express a recombinant protein with the His-tag at the N-terminus of the protein. For the co-expression experiments of human ALDH2 wild type and ALDH2*2 heterotetramers, a wild type ALDH2 gene and a ALDH2 E487K gene were inserted separately into the two multiple cloning sites of pETDuet-1 vector. (Novagen, Calif., USA). All the vectors were transformed into BL21 E. coli host cells and subjected to 0.5 mM IPTG induction for protein expression at 30° C. Purifications of the recombinant proteins by affinity nickel columns (HisTrap, GE Healthy Science, USA) were carried out using standard protocols according to manufacturer's instructions (Novagen, USA).
(§3) Control 1 and compound 161 are used as benchmarks and the symbols have the following representation: […]

The target of assay [2] is T2, human ALDH2*2 recombinant mutant enzyme (E487K) (Homo sapiens, UniProt P05091, E504K).
T2 construct: His-tag (pTrcHis vector) (N); made in house; host or cells: E. coli BL21
T2 sequence (P05091 18-517 E504K): T1 sequence (P05091 18-517) with E487K
Kind of assay: ALDH2 enzymatic assay (NADH at 340 nm), recombinant mutant enzyme. Conditions: activation relative to benchmarks control 1 and compound 161. The assay is classed as biochemical. The arrangement: key: −: no activation or inhibition; +: activation less than control 1; ++: activation similar to control 1, within 10%; +++: activation more than control 1 and less than control (compound 161); ++++: activation similar to compound 161, within 10%.
From the text: as §1, §2, §3

SMILES strings stand for the structures. Changes are numbered by the printed parent chain.

On to `COc1ccc(CNC(=O)c2c(Cl)cccc2NCC(C)O)cc1F` (stereo not shown) [Compound 159], for which the “ALDH2 (wild-type)” value in assay [1] is on record as “++”. In assay [2], the “ALDH2 (mutant)” value is “++”.
On to `COc1ccc(CNC(=O)c2c(Cl)ccnc2OCC(C)C)cc1F` [Compound 183], for which the “ALDH2 (wild-type)” value in assay [1] is given as “++”. Besides, the “ALDH2 (mutant)” value in assay [2] is given as “++”.
Regarding `Cc1nc2ccc(CNC(=O)c3c(Cl)ccnc3OCC3CC3)cc2[nH]1` [Compound 261], the “ALDH2 (wild-type)” value in assay [1] is listed as “+”. For the same compound, the “ALDH2 (mutant)” value in assay [2] was “+”.
As for `O=C1OCc2cc(CNC(=O)c3c(Cl)ccnc3OCC3CC3)ccc21` [Compound 258], the “ALDH2 (wild-type)” value in assay [1] is recorded as “+”. Further, in assay [2], the “ALDH2 (mutant)” value is “−”.
The corresponding values for `O=C(NCc1ccc2ocnc2c1)c1c(Cl)ccnc1OCC1CC1` [Compound 260] are “+” and “−”.
The corresponding values for `COc1ccc(CNC(=O)c2c(Cl)ccnc2OCC2CC2)cn1` [Compound 255] are “+” and “+”.
The corresponding values for `COc1ccc(CNC(=O)c2c(Cl)cc[n+]([O-])c2Cl)cc1F` [Compound 168] are “+” and “+”.
`O=C(NCc1ccc2c(c1)CCCO2)c1c(Cl)ccnc1OCC1CC1` [Compound 244]: the “ALDH2 (wild-type)” value in assay [1] is listed as “++”. In addition, the “ALDH2 (mutant)” value in assay [2] is “+”.
For `O=C(NCc1ccc(F)c(F)c1)c1c(Cl)cccc1Br` [Compound 153] the same measures were “+” and “+”.
Take `COc1ccc(CNC(=O)c2c(NCCO)cccc2NCCO)cc1F` [Compound 120]: in assay [1], the “ALDH2 (wild-type)” value was “−”. In addition, the “ALDH2 (mutant)” value in assay [2] was “+”.
The corresponding values for `COc1ccc(CNC(=O)c2c(C(F)(F)F)ccnc2OCC2CCC2)cc1F` [Compound 229] are “+” and “+”.
The corresponding values for `COc1ccc(CNC(=O)c2c(Cl)ccnc2OCC2(C)CC2)cc1F` [Compound 178] are “++++” and “++++”.
For `COc1ccc(CNC(=O)c2c(C)ccnc2OCC(C)C)cc1F` [Compound 232] the same measures were “+” and “+”.
Take `COc1ccc(CNC(=O)c2c(Cl)cccc2Cl)cc1Cl` [Compound 100]: the “ALDH2 (wild-type)” value in assay [1] is reported as “+”. Further, the “ALDH2 (mutant)” value in assay [2] was “+”.
Regarding `COc1ccc(CNC(=O)c2c(Cl)cncc2OCC2CC2)cc1F` [Compound 239], the “ALDH2 (wild-type)” value in assay [1] is “++”. In assay [2], the “ALDH2 (mutant)” value was “+++”.
On to `COc1ccc(CNC(=O)c2c(C)cccc2NCC(C)C)cc1F` [Compound 117], for which the “ALDH2 (wild-type)” value in assay [1] was “+”. The “ALDH2 (mutant)” value in assay [2] was “++”.
Regarding `COc1ccc(CNC(=O)c2c(Cl)cccc2NC2CCCC2)cc1F` [Compound 148], the “ALDH2 (wild-type)” value in assay [1] is recorded as “+”. Moreover, the “ALDH2 (mutant)” value in assay [2] is on record as “+”.
Take `COc1ccc(CNC(=O)c2c(Cl)cccc2NCc2ccc(Cl)cc2)cc1F` [Compound 130]: in assay [1], the “ALDH2 (wild-type)” value is listed as “−”. Moreover, the “ALDH2 (mutant)” value in assay [2] is recorded as “−”.
On to `O=C(NCc1ccc([N+](=O)[O-])cc1)c1c(Cl)cccc1Br` [Compound 128], for which the “ALDH2 (wild-type)” value in assay [1] is given as “+”. Besides, in assay [2], the “ALDH2 (mutant)” value is reported as “+”.
In the case of `COc1cc(F)c(CNC(=O)c2c(Cl)ccnc2OCC2CC2)cc1F` [Compound 190], in assay [1], the “ALDH2 (wild-type)” value is recorded as “++++”. Also, the “ALDH2 (mutant)” value in assay [2] is listed as “++++”.
Regarding `COc1ccc(CNC(=O)c2c(C)ccnc2OC2CCC2)cc1F` [Compound 238], in assay [1], the “ALDH2 (wild-type)” value is given as “+”. The “ALDH2 (mutant)” value in assay [2] is on record as “+”.
Consider `COc1ccc(CNC(=O)c2c(Cl)ccn(C)c2=O)cc1F` [Compound 273], for which the “ALDH2 (wild-type)” value in assay [1] is “+”. For the same compound, the “ALDH2 (mutant)” value in assay [2] is reported as “+”.
For `CCOc1cccc(Cl)c1C(=O)NCc1ccc(OC)c(F)c1` [Compound 139], the “ALDH2 (wild-type)” value in assay [1] is reported as “++”. The “ALDH2 (mutant)” value in assay [2] was “+++”.
In the case of `COc1ccc(CNC(=O)c2c(Cl)cccc2OCC2CC2C)cc1F` (stereo not shown) [Compound 152], the “ALDH2 (wild-type)” value in assay [1] is listed as “+++”. The “ALDH2 (mutant)” value in assay [2] is “+++”.
Regarding `CC(C)Oc1ccc(CNC(=O)c2c(Cl)ccnc2OCC2CC2)cc1F` [Compound 188], in assay [1], the “ALDH2 (wild-type)” value was “−”. Moreover, the “ALDH2 (mutant)” value in assay [2] is on record as “−”.
With `COc1ccc(CNC(=O)c2c(C)cccc2Br)cc1F` [Compound 125], in assay [1], the “ALDH2 (wild-type)” value is reported as “+”. For the same compound, in assay [2], the “ALDH2 (mutant)” value is “+”.
Regarding `O=C(NCc1ccc(OC(F)(F)F)c(F)c1)c1c(Cl)ccnc1Cl` [Compound 175], in assay [1], the “ALDH2 (wild-type)” value is listed as “+”. Further, in assay [2], the “ALDH2 (mutant)” value is on record as “++”.
For `COc1ccc(CNC(=O)c2c(C(F)(F)F)ccnc2OC(C)C)cc1F` [Compound 227] the same measures were “+” and “+”.
The corresponding values for `COc1ccc(CNC(=O)c2c(Cl)cccc2NCC2CC2)cc1F` [Compound 134] are “+++” and “+++”.
The corresponding values for `CCC(CC)Oc1nccc(C)c1C(=O)NCc1ccc(OC)c(F)c1` [Compound 234] are “+” and “+”.
As to `COc1ccc(CNC(=O)c2c(Cl)ccnc2Oc2ccccc2)cc1F` [Compound 206], the “ALDH2 (wild-type)” value in assay [1] is “++”. In assay [2], the “ALDH2 (mutant)” value was “+”.
`CCCS(=O)(=O)c1nccc(Cl)c1C(=O)NCc1ccc(OC)c(F)c1` [Compound 221]: in assay [1], the “ALDH2 (wild-type)” value is given as “+”. The “ALDH2 (mutant)” value in assay [2] is recorded as “+”.
As to `COc1ccc(CNC(=O)c2c(Cl)cccc2OCC(C)N(C)C)cc1F` (stereo not shown) [Compound 166], the “ALDH2 (wild-type)” value in assay [1] is given as “++”. Moreover, the “ALDH2 (mutant)” value in assay [2] was “++”.
As for `CCCSc1nccc(Cl)c1C(=O)NCc1ccc(OC)c(F)c1` [Compound 215], the “ALDH2 (wild-type)” value in assay [1] is reported as “++++”. For the same compound, in assay [2], the “ALDH2 (mutant)” value is recorded as “+++”.
For `COc1ccc(CNC(=O)c2c(Cl)ccnc2SC)cc1F` [Compound 213] the same measures were “++” and “++”.
For `COc1ccc(CNC(=O)c2c(Cl)cccc2OCCC(C)C)cc1F` [Compound 122] the same measures were “+” and “++”.
The corresponding values for `COc1ccc(CNC(=O)c2ccc(Br)cc2C)cc1` [Compound 116] are “+” and “+”.
Consider `COc1ccc(CNC(=O)c2c(Cl)ccnc2OCC2CCNC2)cc1F` (stereo not shown) [Compound 205], for which, in assay [1], the “ALDH2 (wild-type)” value is reported as “+”. Also, the “ALDH2 (mutant)” value in assay [2] is reported as “+”.
As to `COc1ccc(CNC(=O)c2c(Cl)cccc2OCC(C)C)cc1F` [Compound 149], in assay [1], the “ALDH2 (wild-type)” value is “++++”. Moreover, the “ALDH2 (mutant)” value in assay [2] is given as “++++”.
For `O=C(NCc1ccc2c(c1)CCO2)c1c(Cl)ccnc1OCC1CC1` [Compound 245], the “ALDH2 (wild-type)” value in assay [1] is listed as “+”. In addition, the “ALDH2 (mutant)” value in assay [2] is given as “+++”.
For `CCSc1nccc(Cl)c1C(=O)NCc1ccc(OC)c(F)c1` [Compound 214] the same measures were “++” and “++”.
